Drawing on patent US20240069011A1, “PREDICTING EFFICACY OF OR RESISTANCE TO TREATMENT OF COLON CANCER” (2cureX A/S, priority 2020, published 2024), this text covers IC50 for 2 molecules.

Assay [1] has as its system tumoroids from colon cancer patients. Kind of assay: Tumoroid ATP content (CellTiter-Glo 3D cell viability assay). In kind it is cell-based, human. Particulars: 50% inhibition of total ATP content, day 7, tumoroids from four control patients. On the procedure: The tumoroids were prepared from the same patient samples as described above under “drug sensitivity measured with imaging”. The tumoroids were added to drug screening arrays that we pre-loaded with varying concentrations of Oxaliplatin (3, 10, 30, 100, 300 uM), FOLFOX (0, 1, 0, 3, 1, 3, 10 30 uM. Equal concentrations of 5-Fluorouracil and Oxaliplatin) and SN38 (10, 30, 100, 300, 1000 nM). ATP content of cells in the tumoroids was measured day 0 and on day 7 using CellTiter-Glo 3D cell viability assay (Promega; Catalog number G9681). The homogenous CellTiter-Glo 3D assays generates a luminescent signal that is proportional to the amount of cellular ATP. The assay was conducted in accordance with the instructions from the manufacture (Promega) by allowing the drug screening arrays to equilibrate to room temperature (20-25° C.) and then adding an amount of the CellTiter-Glo 3D reagent to the drug screening arrays. The equal volume of media and reagent is mixed thoroughly for 5 min to induce cell lysis and release of cellular ATP content. The luminescence signal was monitored with the Cytation 1 (BioTek) imaging system operating in luminescence mode. The luminescence signal was quantified by direct comparison to an ATP dose-response curve created by replacing the drug screening media with ATP standards.
Background: ATP-based viability assays read luminescence as a measure of living cells.

For assay [2] the test system is unchanged. As to the kind of experiment: Tumoroid growth inhibition measured as projected area by imaging (CyQUANT, IndiNet). It is filed as cell-based, human. Particulars: 50% inhibition of tumoroid growth (projected area), day 7, tumoroids from four control patients. The method, then:
The tumoroids were prepared from patient samples as described above in Example 2 under “3D tumoroid preparation”. The tumoroids were added to drug screening arrays that we pre-loaded with varying concentrations of Oxaliplatin (3, 10, 30, 100, 300 uM), FOLFOX (0, 1, 0, 3, 1, 3, 10 30 uM. Equal concentrations of 5-Fluorouracil and Oxaliplatin) and SN38 (10, 30, 100, 300, 1000 nM). SN38 is the active components of Irinotecan. At day 6 to day 7 tumoroids were stained with CyQUANT (cell proliferation assay). Tumoroid growth was measured by taking brightfield images on day 0 and visualizing living cells using CyQUANT Cell proliferation assay (ThermoFisher) on day 7. All images were acquired using a Cytation 1 (BioTek) imaging system. For Control patients, tissue from resected tumor was used. This sampling method typically secures bigger amounts of tissue and mechanically as well as enzymatically digestion is performed.
Images from day 0 and day 7 were analysed using the Al image analysis algorithm IndiNet™, which quantifies the projected area (referred to as “area” in this example) of live cells in both brightfield (day 0) and fluorescence (day 7) images and calculates the relative growth inhibition. […]

Where [3] appears, read: Folfox = equal concentrations of 5-Fluorouracil and Oxaliplatin.

Broadly, the IC50 is the midpoint of a concentration-inhibition curve.

As for `O=C1[O][Pt]2([NH][C@@H]3CCCC[C@H]3[NH]2)[O]C1=O` [Oxaliplatin, oxaliplatin], the concentration for half-maximal inhibition (IC50) came out at 72.7 µM in assay [1] (setting [3]) and 17.7 µM in assay [2] (setting [3]).

`CCc1c2c(nc3ccc(O)cc13)-c1cc3c(c(=O)n1C2)COC(=O)[C@]3(O)CC` [SN38]: the concentration for half-maximal inhibition (IC50) in assay [1] was 0.0367 µM; in assay [2], 0.00164 µM.
